This passage reports Activity results from ChEMBL document CHEMBL5329202, “New aryl-/heteroarylpiperazine derivatives of 1,7-dimethyl-8,9-diphenyl-4-azatricyclo[5.2.1.02,6]dec-8-ene-3,5,10-trione: Synthesis and preliminary studies of biological activities” (Bioorg Med Chem, 2023).

In one assay the test system is PC-3. Put plainly: Antiproliferative activity against human PC-3 cells assessed as decrease in IL-6 level at IC50 measured after 72 hrs by ELISA assay relative to control. Further details: scale not given: the % may be the effect or the level left. It counts as functional.
The subject of a further assay is HMEC-1. Put plainly: Induction of apoptosis in human HMEC-1 cells assessed as increase in caspase-3/7 activity at IC50 incubated for 24 hrs by Glo assay relative to control. It counts as functional.

`CC12C(=O)C(C)(C(c3ccccc3)=C1c1ccccc1)C1C(=O)N(CCCCN3CCN(c4cccc(Cl)c4)CC3)C(=O)C12` (configuration not stated): the Activity in the assay on PC-3 stood at 51%.
Turning to `CC12C(=O)C(C)(C(c3ccccc3)=C1c1ccccc1)C1C(=O)N(CCCCN3CCN(c4ccccc4F)CC3)C(=O)C12` (configuration not stated), the Activity in the assay on HMEC-1 amounted to 13%.
